Patent publication US12180213B2, “Substituted pyrazoles showing serotonin 5-HT receptor activity” (Sumitomo Pharma Co., Ltd., priority 2018, dated 2024)
Where two headings read alike, the source gives them in different places.

Experiments:
human 5-HT1A receptor [1] = molecular target: T1, human 5-HT1A receptor (Homo sapiens (Human), UniProt P08908); test: Test 2: agonist activity for human 5-HT1A receptor ([35S]GTPγS binding); format: biochemical; settings: for Emax at 10 µM / 5-HT1A agonist activity Emax: agonist activity in the presence of 10 μM of compound, relative to 100 μmol/L 5-HT
T1 sequence (P08908 whole entry): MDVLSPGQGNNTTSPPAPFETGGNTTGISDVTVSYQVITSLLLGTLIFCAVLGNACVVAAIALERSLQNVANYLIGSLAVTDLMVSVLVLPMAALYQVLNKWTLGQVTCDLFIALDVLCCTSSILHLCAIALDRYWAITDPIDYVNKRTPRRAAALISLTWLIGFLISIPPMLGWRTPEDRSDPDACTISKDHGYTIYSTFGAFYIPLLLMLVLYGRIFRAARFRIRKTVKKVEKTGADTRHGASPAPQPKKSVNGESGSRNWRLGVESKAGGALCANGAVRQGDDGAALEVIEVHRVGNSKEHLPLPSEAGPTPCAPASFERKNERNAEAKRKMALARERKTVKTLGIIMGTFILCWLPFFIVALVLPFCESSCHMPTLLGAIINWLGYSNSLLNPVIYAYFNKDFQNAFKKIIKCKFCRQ
Procedure: Test 2: Evaluation of Agonist Activity for Human 5-HT1A Receptor
CHO cell membrane fraction in which human 5-HT1A receptor was expressed as used in Test 1 was purchased. To a buffer containing guanosine diphosphate were added a test compound dissolved in DMSO, each receptor membrane sample diluted with buffer, and [^35S] Guanosine 5′-O-[gamma-thio]triphosphate (GTPγS). The mixture was incubated at room temperature for 60 minutes. Then, the mixture was added quickly on a glassfiber filter plate (Multiscreen FB, Millipore, Inc.), and vacuum-filtered. Radioactivity remaining on the […] was measured with a liquid scintillation counter. Agonist activity was calculated from the following formula.

human 5-HT1A receptor [2] = molecular target: T1, human 5-HT1A receptor; test: Test 1: binding activity for human 5-HT1A receptor ([3H]8-OH-DPAT); settings: CHO cell membrane fraction
Procedure: (§1) Test 1: Evaluation of binding activity for human 5-HT1A receptor, human 5-HT2A receptor, and human D2 receptor
(§2) Binding affinity of the present compound for human 5-HT1A receptor, human 5-HT2A receptor, and human D2 receptor was measured by the following procedures.
(§3) Each mixture was incubated at room temperature for 60 minutes. Then, the mixture was added quickly on a glassfiber filter plate (Multiscreen FB, Millipore, Inc.) coated with 0.3% aqueous polyethylenimine, and vacuum-filtered. Radioactivity remaining on the filter was measured with a liquid scintillation counter (PerkinElmer, Inc.). Binding inhibition rate was calculated from the following formula.
IC50 value was calculated by Hill analysis (Physiology, 1910, 40, 190-200). Ki of each compound was calculated from the following formula.
(§4) Binding inhibition constant (Ki)=IC50/(1+S/Kd) wherein S is concentration of ligand; Kd is a binding dissociation constant of ligand to membrane, which is calculated from a saturated binding experiment conducted with the same cell membrane. A small Ki value means strong binding ability to a receptor.

[3] = Test 4: metabolic stability test in human hepatic microsome; format: in vitro ADME; settings: 0.1 mg/mL microsome, 0.1 μmol/L compound, 37° C., 30 minutes
Procedure: Test 4: Metabolic Stability Test in Human Hepatic Microsome
The stability of the present compound in human hepatic microsome metabolism was evaluated as mentioned below. Human hepatic microsome was obtained from Xenontech. Human hepatic microsome, NADPH, and each test compound were mixed in 25 mmol/L phosphate buffer solution (pH 7.4) to reach the following concentrations as shown below, and the mixture was incubated at 37° C. for 30 minutes. • Human hepatic microsome: 0.1 mg/mL • NAPDH: 3.2 mmol/L • Test compound: 0.1 μmol/L
The residual ratio of the test compound in each sample after 30 minutes was measured by LC-MS, and the metabolic stability in human hepatic microsome was calculated from the following formula. Metabolic stability in human hepatic microsome (mL/min/mg protein)=−LN(residual ratio)/30/0.1

human D2 receptor = human D2 receptor (Homo sapiens (Human), UniProt P14416); test: Test 1: binding activity for human D2 receptor ([3H]Spiperone); settings: for Ki: [3H]Spiperone, CHO cell membrane fraction; for D2 Ki/5-HT1A Ki: ratio of D2 Ki to 5-HT1A Ki; for D2 Ki/5-HT2A Ki: ratio of D2 Ki to 5-HT2A Ki
human D2 receptor, sequence (P14416 whole entry): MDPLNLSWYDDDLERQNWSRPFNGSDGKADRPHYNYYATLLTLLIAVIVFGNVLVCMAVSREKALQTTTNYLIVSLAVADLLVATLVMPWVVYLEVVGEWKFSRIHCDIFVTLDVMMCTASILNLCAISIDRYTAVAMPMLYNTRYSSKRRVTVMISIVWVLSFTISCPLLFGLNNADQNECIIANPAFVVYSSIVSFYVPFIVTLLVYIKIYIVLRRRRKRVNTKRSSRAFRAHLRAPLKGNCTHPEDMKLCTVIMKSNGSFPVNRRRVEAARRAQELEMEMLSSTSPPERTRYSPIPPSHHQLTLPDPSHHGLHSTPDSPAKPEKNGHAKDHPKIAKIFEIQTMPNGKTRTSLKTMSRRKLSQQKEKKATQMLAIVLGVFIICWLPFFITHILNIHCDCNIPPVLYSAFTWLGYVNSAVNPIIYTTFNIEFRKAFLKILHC
Procedure: as §1, §2, §3
(§5) Ki of each compound was calculated from the following formula.
as §4

hERG channel = hERG channel (Homo sapiens (Human), UniProt Q12809); test: Test 6-1: inhibitory activity for hERG channel (auto patch clamp, Qpatch); format: cell-based; settings: whole cell patch clamp, read-out: hERG inhibition IC50
hERG channel, sequence (Q12809 whole entry): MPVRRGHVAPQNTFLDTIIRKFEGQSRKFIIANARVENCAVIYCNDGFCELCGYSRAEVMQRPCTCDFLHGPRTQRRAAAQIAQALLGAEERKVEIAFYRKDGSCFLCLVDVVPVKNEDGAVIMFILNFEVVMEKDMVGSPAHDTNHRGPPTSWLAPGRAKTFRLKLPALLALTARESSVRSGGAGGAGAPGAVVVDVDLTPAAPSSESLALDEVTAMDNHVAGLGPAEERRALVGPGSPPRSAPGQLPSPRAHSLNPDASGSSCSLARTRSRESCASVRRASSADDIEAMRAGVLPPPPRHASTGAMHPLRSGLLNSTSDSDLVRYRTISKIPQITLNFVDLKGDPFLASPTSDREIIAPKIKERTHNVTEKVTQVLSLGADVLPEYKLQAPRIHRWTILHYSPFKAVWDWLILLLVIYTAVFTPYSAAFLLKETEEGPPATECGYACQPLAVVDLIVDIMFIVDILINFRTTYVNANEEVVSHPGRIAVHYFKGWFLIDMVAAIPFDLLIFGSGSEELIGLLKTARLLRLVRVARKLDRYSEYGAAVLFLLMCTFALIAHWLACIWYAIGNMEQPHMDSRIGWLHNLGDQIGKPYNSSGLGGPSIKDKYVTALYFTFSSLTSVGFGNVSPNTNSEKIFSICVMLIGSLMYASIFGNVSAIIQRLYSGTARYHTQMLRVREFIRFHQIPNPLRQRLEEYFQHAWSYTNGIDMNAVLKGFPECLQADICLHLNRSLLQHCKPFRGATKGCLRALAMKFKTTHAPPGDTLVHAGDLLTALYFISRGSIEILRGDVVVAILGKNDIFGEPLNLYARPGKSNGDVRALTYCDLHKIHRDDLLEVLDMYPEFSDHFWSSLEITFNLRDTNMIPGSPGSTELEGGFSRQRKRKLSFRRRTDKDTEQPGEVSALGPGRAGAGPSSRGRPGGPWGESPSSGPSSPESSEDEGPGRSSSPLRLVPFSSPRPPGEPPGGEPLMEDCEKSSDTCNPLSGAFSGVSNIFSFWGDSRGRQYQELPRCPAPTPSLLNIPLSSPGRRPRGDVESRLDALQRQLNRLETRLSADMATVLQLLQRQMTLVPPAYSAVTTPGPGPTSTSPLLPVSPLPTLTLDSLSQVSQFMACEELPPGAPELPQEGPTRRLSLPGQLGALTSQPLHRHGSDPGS
Procedure: Test 6-1: Evaluation of Inhibitory Activity for hERG Channel
Inhibitory activity of the present compound for hERG channel was measured by whole cell patch clamp method with an auto patch clamp system using CHO cells in which hERG channel involved in human rapidly activating delayed rectifier potassium current (IKr) was forcibly expressed.
(Preparation of cell suspension)
hERG-CHO cells purchased from ChanTest Cop. were cultured in a CO2 incubator at 37° C., and dissociated from a flask with trypsin shortly before the measurement of hERG current, to prepare a cell suspension.
(Preparation of Solution)
Extracellular and intracellular fluid used in the measurement were prepared as follows.
Intracellular fluid: 5.4 mmol/L CaCl2, 1.8 mmol/L MgCl2, 10 mmol/L HEPES, 31 mmol/L KOH, 10 mmol/L EGTA, 120 mmol/L KCl, 4 mmol/L Na2-ATP
Test compound solution: Test compound was dissolved in DMSO to reach the concentration of 2 mmol/L or 20 mmol/L, in order to prepare a test compound solution. […] (Measurement of Current Value and Data Analysis)
The cell suspension, the extracellular fluid, the intracellular fluid, and the measurement plate were set in the auto patch clamp system, and hERG current was measured by whole cell patch clamp method. […] Each pulse interval was 15 seconds. The data analysis was carried out with Qpatch Assay Software (Biolin Scientific). The test was carried out by applying incrementally 4 concentrations of each test compound, and the average of the maximum peak tail currents which were obtained from the last 3 stimulations in each concentration was determined as the evaluated data.

human 5-HT2A receptor [4] = molecular target: T2, human 5-HT2A receptor (Homo sapiens (Human), UniProt P28223); test: Test 3: antagonist activity for human 5-HT2A receptor (aequorin luminescence, CHO-K1 cells); format: cell-based; settings: against 1 nmol/L 5-HT
T2 sequence (P28223 whole entry): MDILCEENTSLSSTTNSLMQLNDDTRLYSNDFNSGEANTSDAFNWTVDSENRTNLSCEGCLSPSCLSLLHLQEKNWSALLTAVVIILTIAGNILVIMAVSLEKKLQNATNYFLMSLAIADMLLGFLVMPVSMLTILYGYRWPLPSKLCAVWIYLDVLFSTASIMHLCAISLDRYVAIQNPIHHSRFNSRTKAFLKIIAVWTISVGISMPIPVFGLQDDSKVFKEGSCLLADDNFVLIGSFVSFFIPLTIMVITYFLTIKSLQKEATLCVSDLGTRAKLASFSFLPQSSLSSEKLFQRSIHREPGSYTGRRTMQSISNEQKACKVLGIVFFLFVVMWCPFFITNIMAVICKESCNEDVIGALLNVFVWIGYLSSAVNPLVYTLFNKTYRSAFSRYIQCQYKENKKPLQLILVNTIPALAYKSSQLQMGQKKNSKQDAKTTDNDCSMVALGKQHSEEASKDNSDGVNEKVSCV
Procedure: Test 3: Evaluation of Antagonist Activity for Human 5-HT2A Receptor
Aequorin, Gα16 protein, and each receptor were transiently expressed in CHO-K1 cells (Chinese hamster ovary). […] Antagonist activity was calculated from the following formula.
Antagonist activity (%)=100×{(Luminescence of well in the presence of 1 nmol/L 5-HT−Luminescence of well containing solvent)−(Luminescence of well in the presence of test compound and 1 nmol/L 5-HT−Luminescence of well containing solvent)}/(Luminescence of well in the presence of 1 nmol/L 5-HT−Luminescence of well containing solvent)

human 5-HT2A receptor [5] = molecular target: T2, human 5-HT2A receptor; test: Test 1: binding activity for human 5-HT2A receptor ([3H]Ketanserin); settings: CHO cell membrane fraction
Procedure: as §1, §2, §3, §5, §4

[6] = human, CHO cells that express hERG

Ki (human 5-HT1A receptor [2]) [nM] | Compound | Emax at 10 µM (human 5-HT1A receptor [1]) [%] | Metabolic stability in human hepatic microsome [3] [mL/min/mg protein] | Ki (human 5-HT2A receptor [5]) [nM] | further results
7.03 | O=c1c2ncccc2ccn1CCN1CCN(c2nsc3cc(F)ccc23)CC1 [Example 12] | 32 | 0.02 |  | Ki (human D2 receptor): 311 nM; D2 Ki/5-HT1A Ki (human D2 receptor): 44; D2 Ki/5-HT2A Ki (human D2 receptor): 111
 | COc1ccc2c(n1)C(=O)N(CCN1CCC(c3noc4ccccc34)CC1)CC2 [Example 187] |  | <0.05 |  | 
 | COc1ccc2c(n1)C(=O)N(CCN1CCN(c3noc4ccccc34)CC1)CC2 [Example 186] |  | 0.095 |  | 
 | O=C1c2cnccc2CCN1CCN1CCC(c2noc3ccccc23)CC1 [Example 13] |  | <0.01 |  | IC50 (hERG channel; hERG-CHO cells): 1100 nM; IC50 (human 5-HT2A receptor [4]): 71 nM
 | O=C1c2ncccc2CCN1CCN1CCN(c2noc3cc(Cl)ccc23)CC1 [Example 124] |  |  |  | Ki (human D2 receptor): > 10000 nM
1.17 | O=C1c2oc(C3CC3)nc2CCC1CCN1CCN(c2nsc3ccccc23)CC1 (stereo not drawn) [Example 67] | 65 | 0.269 |  | 
184 | COc1ccc2c(N3CCN(CCN4CCc5cccnc5C4=O)CC3)noc2c1 [Example 149] | 16 |  | 217 | Ki (human D2 receptor): > 10000 nM; D2 Ki/5-HT1A Ki (human D2 receptor): >54.3; D2 Ki/5-HT2A Ki (human D2 receptor): >46.1
0.84 | Cc1nc2c(o1)CCN(CCN1CCN(c3noc4ccccc34)CC1)C2=O [Example 39] | 61 | 0.016 |  | Ki (human D2 receptor): 1860 nM
 | Cn1ncc2c1CCCC(CCN1CCN(c3noc4ccccc34)CC1)C2=O (stereo not drawn) [Example 30] | 42 | 0.065 | 0.76 | IC50 (hERG channel; [6]): 900 nM
 | Cn1nc2c(c1Br)C(=O)N(CCN1CCN(c3nsc4ccccc34)CC1)CC2 [Example 73] |  |  |  | 5-HT1A agonist activity Emax (human 5-HT1A receptor [1]): 62%
 | Cc1cc2c(o1)C(=O)N(CCN1CCN(c3nsc4ccccc34)CC1)CC2 [Example 45] | 65 | 0.032 | 3.1 | IC50 (hERG channel; [6]): 7000 nM
 | Cn1nc(Br)c2c1CCN(CCN1CCN(c3nsc4ccccc34)CC1)C2=O [Example 69] |  |  |  | EC50 (human 5-HT1A receptor [1]; concentration at which half the activity of Emax was obtained): 33.9 nM
 | Cn1nc(Br)c2c1CCN(CCN1CCC(c3noc4ccccc34)CC1)C2=O [Example 70] |  |  |  | 5-HT1A agonist activity Emax (human 5-HT1A receptor [1]): 50%

Compound | Ki (human 5-HT1A receptor [2]) [nM] | Emax at 10 µM (human 5-HT1A receptor [1]) [%] | Metabolic stability in human hepatic microsome [3] [mL/min/mg protein] | Ki (human 5-HT2A receptor [5]) [nM] | further results
CC1CC(CCN2CCC(c3noc4ccccc34)CC2)C(=O)c2ccn(C)c21 (stereo not drawn) [Example 82] | 0.61 | 61 | 0.072 | 0.87 | 
Cc1noc2c1C(=O)N(CCN1CCN(c3noc4ccccc34)CC1)CCC2 [Example 38] | 13.5 | 56 | 0.136 | 4.44 | IC50 (hERG channel; [6]): 500 nM
